Like-named read-outs stand apart in the source and are kept apart here.
Test system: normal spleen cells / splenic T-lymphocytes (Con-A stimulated)
Assay: Con-A blastogenic response of normal spleen cells (3H-thymidine incorporation)
Type: cell-based, mouse (C57Bl/6)
Conditions: for Blastogenic response of normal spleen cells to Con-A; % effect / inhibition at 1 µg/mL / inhibition at 10 µg/mL / inhibition at 25 µg/mL / inhibition at 100 µg/mL / inhibition at 300 µg/mL / inhibition at 750 µg/mL: percent change from no compound; for Blastogenic response of normal spleen cells to Con-A; % effect: 4320 min; for Blastogenic response of normal spleen cells to Con-A: triplicates ± SD; for inhibition at 1 µg/mL / inhibition at 10 µg/mL / inhibition at 25 µg/mL / inhibition at 100 µg/mL / inhibition at 300 µg/mL / inhibition at 750 µg/mL: Mus musculus, T-lymphocyte, 72 h, read-out: Blastogenic response of normal spleen cells to Con-A, % effect
From the text: A simple method is used to screen compounds for their ability to modulate T-lymphocyte activity which comprises assessing the capacity of the compounds to alter the activation of murine spleen cells in response to T-lymphocyte mitogen activators, such as concanavalin-A (Con-A). The method used to measure the effects of the compounds of the present invention on the blastogenic response of spleen cells to the T-lymphocyte mitogen, (i.e., Con-A), is as follows.
Spleen cells were removed from normal C57Bl/6 mice and homogenized to obtain a single cell suspension. Erythrocytes were lysed by hypotonic shock. Upon determination of the viability and concentration of the remaining lymphoid cells, they were adjusted to a concentration of 4×10^6 /ml. These spleen cells (2×10^5 cells per […]) were seeded into wells of microtiter plates with the compounds of the present invention having the following dose concentrations:
Con-A was also added to these cultures at a final concentration of […]. These cells were cultured for 3 days at 37° C. in a humidified atmosphere of 5% CO2 in air. For the last 18 hours of culture, […] H-thymidine was added to each well. The cells were then precipitated by a multichannel harvester. The amount of ^3 H-thymidine incorporated by the cultured cells were measured in a liquid scintillation counter (Disintegrations per min., DPM). All assays were conducted in triplicate.
The incubation medium used for the blastogenesis assays was RPMI-1640 medium containing 10% fetal bovine serum, […] streptomycin, 100 U/ml penicillin, […] Hepes buffer solution, 5×10^-5 M 2-mercaptoethanol and 2 mM glutamine.
^a Experimental compounds were first suspended in DMSO or ethanol,
^b The effect of experimental compounds on the blastogenic response o

[1] = Con-A 1 ug/ml, compound 1 ug/ml
[2] = Con-A 1 ug/ml, compound 10 ug/ml
[3] = Con-A 1 ug/ml, compound 25 ug/ml
[4] = Con-A 1 ug/ml, compound 100 ug/ml
[5] = Con-A 1 ug/ml, compound 300 ug/ml
[6] = Con-A 1 ug/ml, compound 750 ug/ml
[7] = Con-A 4 ug/ml, compound 1 ug/ml
[8] = Con-A 4 ug/ml, compound 10 ug/ml
[9] = Con-A 4 ug/ml, compound 25 ug/ml
[10] = Con-A 4 ug/ml, compound 100 ug/ml
[11] = Con-A 4 ug/ml, compound 300 ug/ml
[12] = Con-A 4 ug/ml, compound 750 ug/ml

Row | Compound | Blastogenic response of normal spleen cells to Con-A [1] | Blastogenic response of normal spleen cells to Con-A [2] | Blastogenic response of normal spleen cells to Con-A [3] | Blastogenic response of normal spleen cells to Con-A [4] | Blastogenic response of normal spleen cells to Con-A [5] | Blastogenic response of normal spleen cells to Con-A [6] | Blastogenic response of normal spleen cells to Con-A [7] | Blastogenic response of normal spleen cells to Con-A [8] | Blastogenic response of normal spleen cells to Con-A [9] | Blastogenic response of normal spleen cells to Con-A [10] | Blastogenic response of normal spleen cells to Con-A [11] | Blastogenic response of normal spleen cells to Con-A [12] | inhibition at 1 µg/mL [1] | inhibition at 10 µg/mL [2] | inhibition at 25 µg/mL [3] | inhibition at 100 µg/mL [4] | inhibition at 300 µg/mL [5] | inhibition at 750 µg/mL [6] | inhibition at 1 µg/mL [7] | inhibition at 10 µg/mL [8] | further results
1 | CCCCCCCNC[C@H]1OC(C)(C)O[C@@H]2[C@H]3OC(C)(C)O[C@H]3O[C@@H]21 [Ex. 1, 1,2:3,5-Di-O-isopropylidene-6-deoxy-6-aminoheptyl-α, D-glucofuranose] | 93,328 ± 15,583 cpm | 53,439 ± 9,464 cpm | 26,920 ± 10,528 cpm | 10,705 ± 9,501 cpm | 5,398 ± 4,008 cpm | 19,688 ± 7,148 cpm | 116,263 ± 2,521 cpm | 32,032 ± 1,999 cpm | 6,201 ± 1,410 cpm | 4,880 ± 3,619 cpm | 3,097 ± 573 cpm | 2,089 ± 35 cpm | – | – | – | – | – | – | – | – | Blastogenic response of normal spleen cells to Con-A; % effect [1]: +29%; Blastogenic response of normal spleen cells to Con-A; % effect [2]: -26%; Blastogenic response of normal spleen cells to Con-A; % effect [3]: -63%; Blastogenic response of normal spleen cells to Con-A; % effect [4]: -85%; Blastogenic response of normal spleen cells to Con-A; % effect [5]: -93%; Blastogenic response of normal spleen cells to Con-A; % effect [6]: -87%; Blastogenic response of normal spleen cells to Con-A; % effect [7]: +20%; Blastogenic response of normal spleen cells to Con-A; % effect [8]: -67%; Blastogenic response of normal spleen cells to Con-A; % effect [9]: -94%; Blastogenic response of normal spleen cells to Con-A; % effect [10]: -95%; Blastogenic response of normal spleen cells to Con-A; % effect [11]: -97%; Blastogenic response of normal spleen cells to Con-A; % effect [12]: -98%
2 | CCCCCCCNCC(O)C1OC2OC(C)(C)OC2C1OCCCCCCC [Ex. 4, 1,2-O-Isopropylidene-3-O-(n-heptyl)-6-deoxy-6-aminoheptyl-α, D-glucofuranose] | 22,026 ± 9,838 cpm | 3,406 ± 422 cpm | 3,575 ± 827 cpm | 5,241 ± 2,071 cpm | 9,102 ± 6,857 cpm | 3,762 ± 1,201 cpm | 41,151 ± 9,885 cpm | 7,789 ± 7,636 cpm | 13,114 ± 8,696 cpm | 7,102 ± 6,851 cpm | 4,919 ± 645 cpm | 3,128 ± 99 cpm | 70% | 95% | 95% | 93% | 87% | 95% | 58% | 92% | inhibition at 25 µg/mL [9]: 86%; inhibition at 100 µg/mL [10]: 93%; inhibition at 300 µg/mL [11]: 95%; inhibition at 750 µg/mL [12]: 97%
3 | CCCCCCCOC(C)C1OC2OC(C)(C)OC2C1O [Ex. 5, 1,2-O-Isopropylidene-5-O-n-heptyl-6-deoxy α, D-glucofuranose] | 91,612 ± 15,530 cpm | 79,822 ± 15,967 cpm | 63,177 ± 13,102 cpm | 8,553 ± 9,274 cpm | 8,698 ± 786 cpm | 9,487 ± 7,951 cpm | 116,377 ± 12,433 cpm | 92,190 ± 13,256 cpm | 62,068 ± 3,736 cpm | 2,299 ± 490 cpm | 5,932 ± 2,770 cpm | 4,494 ± 2,952 cpm | -27% | -11% | 13% | 88% | 88% | 87% | -20% | 5% | inhibition at 25 µg/mL [9]: 36%; inhibition at 100 µg/mL [10]: 98%; inhibition at 300 µg/mL [11]: 94%; inhibition at 750 µg/mL [12]: 95%
4 | CCCCCCCOC(C)C1OC2OC(C)(C)OC2C1OCCCN(C)C [Ex. 6, 1,2-O-Isopropylidene-3-O-3'-(N'-N'-dimethylaminopropyl)-5-O-n-heptyl-6-deoxy-α,D-glucofuranose] | 86,406 ± 16,348 cpm | 12,670 ± 6,997 cpm | 5,399 ± 3,253 cpm | 6,597 ± 2,887 cpm | 3,693 ± 340 cpm | 3,709 ± 281 cpm | 75,689 ± 8,498 cpm | 4,693 ± 1,930 cpm | 6,187 ± 6,859 cpm | 6,741 ± 4,224 cpm | 3,756 ± 923 cpm | 2,933 ± 1,383 cpm | -20% | 82% | 93% | 91% | 95% | 95% | 22% | 95% | inhibition at 25 µg/mL [9]: 94%; inhibition at 100 µg/mL [10]: 93%; inhibition at 300 µg/mL [11]: 96%; inhibition at 750 µg/mL [12]: 97%

— patent publication US5010058A, “3,5,6-substituted derivatives of 1,2-O-isopropylidene-α,D-glucofuranose and intermediates for preparing these derivatives” (501 Greenwich Pharmaceuticals Incorporated, priority 1989, dated 1991)
